For one compound, IC50, Activity and inhibition results are on record in ChEMBL document CHEMBL5055679, “Discovery of a Novel Androgen Receptor Antagonist Manifesting Evidence to Disrupt the Dimerization of the Ligand-Binding Domain via Attenuating the Hydrogen-Bonding Network Between the Two Monomers” (J Med Chem, 2021).

Active and inactive are the calls of the source. The calls are words filed in the database; no cut-off is given here.

The target in series [1] is T1, Androgen receptor (Homo sapiens, UniProt P10275).
T1 sequence (P10275 whole entry): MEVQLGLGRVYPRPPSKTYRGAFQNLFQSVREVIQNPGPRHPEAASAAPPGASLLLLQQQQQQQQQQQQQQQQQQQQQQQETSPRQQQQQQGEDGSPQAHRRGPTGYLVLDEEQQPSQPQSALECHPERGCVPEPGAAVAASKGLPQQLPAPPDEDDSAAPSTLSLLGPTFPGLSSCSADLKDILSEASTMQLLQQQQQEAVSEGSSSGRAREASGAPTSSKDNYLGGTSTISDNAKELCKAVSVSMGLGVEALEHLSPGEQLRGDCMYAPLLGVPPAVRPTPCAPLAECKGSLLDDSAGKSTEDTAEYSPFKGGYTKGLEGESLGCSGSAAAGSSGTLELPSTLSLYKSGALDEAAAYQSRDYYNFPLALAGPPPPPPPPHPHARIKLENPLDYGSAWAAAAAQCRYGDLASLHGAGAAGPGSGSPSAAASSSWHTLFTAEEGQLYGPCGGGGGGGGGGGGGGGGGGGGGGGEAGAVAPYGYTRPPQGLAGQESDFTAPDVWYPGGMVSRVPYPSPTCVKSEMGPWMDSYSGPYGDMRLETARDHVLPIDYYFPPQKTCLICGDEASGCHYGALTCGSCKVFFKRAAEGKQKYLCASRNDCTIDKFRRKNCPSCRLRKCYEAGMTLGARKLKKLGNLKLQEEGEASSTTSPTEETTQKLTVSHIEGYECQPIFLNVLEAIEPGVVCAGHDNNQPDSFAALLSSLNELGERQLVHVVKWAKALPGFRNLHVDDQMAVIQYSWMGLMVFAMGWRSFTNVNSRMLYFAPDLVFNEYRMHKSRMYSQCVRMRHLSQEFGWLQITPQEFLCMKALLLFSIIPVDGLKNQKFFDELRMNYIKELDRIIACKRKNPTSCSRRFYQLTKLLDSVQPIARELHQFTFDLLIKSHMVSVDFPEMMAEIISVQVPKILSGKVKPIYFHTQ
Description: Binding affinity to GST-tagged AR ligand binding domain (unknown origin) measured after 4 hrs by fluorescence polarization assay

For another series, the system named is PC-3. Nature of the series: Cytotoxicity against human PC-3 cells assessed as reduction in cell viability incubated for 72 hrs by MTT assay. It is filed as functional, cell-based. (Tetrazolium dyes change colour on reduction, which living cells bring about.)
The target of series [2] is T2, Androgen receptor (Homo sapiens) (UniProt P10275).
T2 sequence (whole entry): T1 sequence (P10275 whole entry)
Description: Antagonist activity at androgen receptor in human LNCaP cells assessed as reduction in DHT-induced endogenous PSA level at 0.1 to 10 uM after 48 hrs by Western blot analysis. Particulars: filed as antagonist, dose 0.1-10 µM. It is filed as cell-based. (A western blot detects proteins with antibodies after separation by electrophoresis.)

Series [3] relates to HepG2. Nature of the series: Cytotoxicity against human HepG2 cells assessed as reduction in cell viability at 50 uM incubated for 72 hrs by MTT assay. It is filed as functional, cell-based.
Series [4] deals with HepG2. Description: Cytotoxicity against human HepG2 cells assessed as reduction in cell viability at low concentration incubated for 72 hrs by MTT assay. It is filed as functional, cell-based.
In series [5] the target is T3, Progesterone receptor (Homo sapiens) (UniProt P06401).
T3 sequence (whole entry): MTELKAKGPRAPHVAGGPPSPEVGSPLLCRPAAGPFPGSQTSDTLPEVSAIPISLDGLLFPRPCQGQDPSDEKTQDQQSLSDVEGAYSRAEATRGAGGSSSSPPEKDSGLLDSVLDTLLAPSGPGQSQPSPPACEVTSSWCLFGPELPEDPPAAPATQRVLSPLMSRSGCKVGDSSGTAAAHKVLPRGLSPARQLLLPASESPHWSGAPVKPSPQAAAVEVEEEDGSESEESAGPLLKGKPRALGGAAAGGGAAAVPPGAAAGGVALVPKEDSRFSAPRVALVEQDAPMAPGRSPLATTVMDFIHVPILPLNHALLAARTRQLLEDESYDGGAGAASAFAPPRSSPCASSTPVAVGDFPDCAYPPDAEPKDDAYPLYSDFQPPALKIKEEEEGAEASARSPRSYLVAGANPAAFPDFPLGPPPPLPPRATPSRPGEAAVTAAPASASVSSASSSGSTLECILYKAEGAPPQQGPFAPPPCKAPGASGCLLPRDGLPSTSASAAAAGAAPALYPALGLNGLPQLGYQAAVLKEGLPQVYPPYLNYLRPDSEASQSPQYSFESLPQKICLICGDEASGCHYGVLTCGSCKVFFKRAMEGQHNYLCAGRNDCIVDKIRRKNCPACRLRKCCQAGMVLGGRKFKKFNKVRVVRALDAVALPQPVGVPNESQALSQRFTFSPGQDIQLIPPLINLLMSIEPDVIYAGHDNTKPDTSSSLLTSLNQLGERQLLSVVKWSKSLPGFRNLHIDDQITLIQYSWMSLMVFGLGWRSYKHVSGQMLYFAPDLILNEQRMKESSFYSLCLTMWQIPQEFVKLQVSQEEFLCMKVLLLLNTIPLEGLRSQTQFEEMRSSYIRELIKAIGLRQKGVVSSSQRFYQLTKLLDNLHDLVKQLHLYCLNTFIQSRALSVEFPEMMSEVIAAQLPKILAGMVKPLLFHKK
Description: Antagonist activity at progesterone receptor in human HEK293T cells assessed as reduction in […] luciferase activity by dual-Glo luciferase assay. It is filed as cell-based.

The target in series [6] is T2, Androgen receptor (Homo sapiens). Description: Antagonist activity at androgen receptor in human LNCaP cells assessed as reduction in DHT-induced secreted PSA level. It is filed as cell-based. Particulars: filed as antagonist, dose 0.1-10 µM, time 48.0 hrs.
Series [7] addresses T1, Androgen receptor. Nature of the series: Inhibition of AR transcriptional activity in human LNCaP cells harboring ARR2PB-eGFP incubated for 72 hrs by fluorescence assay. It is filed as cell-based.
The test system of another series is HeLa. Description: Cytotoxicity against human HeLa cells assessed as reduction in cell viability at low concentration incubated for 72 hrs by MTT assay. It is filed as functional, cell-based.
Series [8] deals with LNCaP. Nature of the series: Inhibition of colony formation in human LANCaP cells after 2 weeks by crystal violet staining based assay. The note with it: dose 2-20 µM. It is filed as functional, cell-based.
A further series has as its system MCF7. Description: Cytotoxicity against human MCF7 cells assessed as reduction in cell viability at low concentration incubated for 72 hrs by MTT assay. It is filed as functional, cell-based.
The target of series [9] is T2, Androgen receptor (Homo sapiens). Description: Antagonist activity at androgen receptor in human LNCaP cells assessed as reduction in DHT-induced AR protein expression at 0.1 to 10 uM after 48 hrs by Western blot analysis. It is filed as cell-based. Particulars: dose 0.1-10 µM.
In the next series the test system is GES1. Nature of the series: Cytotoxicity against human GES1 cells assessed as reduction in cell viability incubated for 72 hrs by MTT assay. It is filed as cell-based. The note with it: ges1, 72 h.
A short description of series [10]: Cytotoxicity against human chang cells assessed as reduction in cell viability at 50 uM incubated for 72 hrs by MTT assay. The note with it: chang liver. It is filed as cell-based.
For series [11], the system named is LNCaP. Description: Cytotoxicity against human LNCaP cells assessed as reduction in cell viability incubated for 72 hrs by MTT assay. It is filed as functional, cell-based.
Another series deals with NIH3T3. Nature of the series: Cytotoxicity against mouse NIH3T3 cells assessed as reduction in cell viability incubated for 72 hrs by MTT assay. It is filed as cell-based. Particulars: nih3t3, 72 h.
In the next series the test system is A549. Description: Cytotoxicity against human A549 cells assessed as reduction in cell viability at low concentration incubated for 72 hrs by MTT assay. It is filed as functional, cell-based.

Broadly, the IC50 is the concentration that inhibits the measured activity by half. A low value points to greater potency. As to `O=c1cc(C(F)(F)F)c2ccc(OCc3ccc(Br)cc3)cc2o1`, the values for the IC50 at Androgen receptor [1] and against Androgen receptor [7] were 750 nM and 170 nM, respectively. The outcome (in the series with PC-3; in series [2]; in the series with HepG2 [3]; in the series on LNCaP [11]) was Active. Further, the result (with HepG2 [4]; in [5]; with HeLa; in the series on MCF7; in series [9]; with A549) was inactive. Moreover, the Activity result was “Dose-dependent effect” in series [6], “Non-Toxic” in the series on GES1, “Non-Toxic” in series [10] and “Non-Toxic” in the series on NIH3T3. The inhibition result in the series on LNCaP [8] was “Dose-dependent effect”.
